Assay results taken from article PMC9141032 (International Journal of Molecular Sciences, 2022).
Converted amounts (≈) assume the structure as drawn.

Columns and labels:
[1] = tested on: 5xFAD murine model; parameters: method as in ref 32, 33 = [32]; 32. Escolano C. Pallás M. Griñán-Ferré C. Abás S. Callado L.-F. García-Sevilla J.A. Synthetic I 2 Imidazoline Receptor Ligands for Prevention or Treatment of Human Brain Disorders Patent WO 2019/12185 || [33]; PMID 32150414; doi:10.1021/acs.jmedchem.9b02080; 33. Abás S. Rodríguez-Arévalo S. Bagán A. Griñán-Ferré C. Vasilopoulou F. Brocos-Mosquera I. Muguruza C. Pérez B. Molins E. Luque F.J. Bicyclic α-Iminophosphonates as High Affinity Imidazoline I 2 Rec; settings: 5 mg/kg in drinking water, 4 weeks; cited from earlier work
[2] = parameters: method as in ref 33 = [33]; PMID 32150414; doi:10.1021/acs.jmedchem.9b02080; 33. Abás S. Rodríguez-Arévalo S. Bagán A. Griñán-Ferré C. Vasilopoulou F. Brocos-Mosquera I. Muguruza C. Pérez B. Molins E. Luque F.J. Bicyclic α-Iminophosphonates as High Affinity Imidazoline I 2 Rec; settings: previous studies, cited from earlier work
[3] = parameters: method as in ref 33 = [33]; PMID 32150414; doi:10.1021/acs.jmedchem.9b02080; 33. Abás S. Rodríguez-Arévalo S. Bagán A. Griñán-Ferré C. Vasilopoulou F. Brocos-Mosquera I. Muguruza C. Pérez B. Molins E. Luque F.J. Bicyclic α-Iminophosphonates as High Affinity Imidazoline I 2 Rec; settings: 1% DMSO and 99% PBS buffer; cited from earlier work
[4] = parameters: method as in ref 32, 33 = [32]; 32. Escolano C. Pallás M. Griñán-Ferré C. Abás S. Callado L.-F. García-Sevilla J.A. Synthetic I 2 Imidazoline Receptor Ligands for Prevention or Treatment of Human Brain Disorders Patent WO 2019/12185 || [33]; PMID 32150414; doi:10.1021/acs.jmedchem.9b02080; 33. Abás S. Rodríguez-Arévalo S. Bagán A. Griñán-Ferré C. Vasilopoulou F. Brocos-Mosquera I. Muguruza C. Pérez B. Molins E. Luque F.J. Bicyclic α-Iminophosphonates as High Affinity Imidazoline I 2 Rec; settings: cited from earlier work
[5] = Metabolic stability in human liver microsomes; type: in vitro ADME; settings: HLM
Protocol: In the assay, the reaction was initiated by adding HLM (1 mg/mL) to an equal volume of buffer solution containing the test compound and cofactors at the proper concentrations. Reactions without NADPH were also incubated to rule out non-NADPH metabolism or chemical instability in the incubation buffer. Verapamil was included as a positive control to monitor incubation course. All reactions were terminated using 60 µL of ice-cold acetonitrile at 0, 5, 15, 30, 45, and 60 min. The plates were centrifugated at 3500 rpm for 15 min. All experiments were conducted in triplicate. Samples were monitored for B06 disappearance by LC-MS in MRM mode according to a quantitation method for B06. […]
concentration 1 μM, protein concentration 1 mg/mL, NADPH, 1.3 mM. Potassium phosphate buffer (100 mM) pH 7.4 and human liver microsomes, were purchased from Beckton Dickinson. […]
needed for the study was Beckman Coulter Refrigerated centrifuge, Agilent 1290 Infinity Liquid Chromatograph, CTC Analytics PAL HT‐xt injector, Api4000 Mass Spectrometer. Total incubation […]
Analysis: For the data analysis the area ratio of analyzed versus internal standard was used to calculate the percentage of remaning compound at each incubation time. The natural logarithm of […]
the following equation: Half‐life (T1/2) (min) = 0.693/k (the slope of the natural log of the percent remaining versus time). Intrinsic clearance was determined by the following equation: Clint H = Ln 2/t1/2 (min) x volume incubation (mL)/microsomal protein (mg) x 45 (MPPGL) 1500 g human liver/ 70 Kg human body weight. Units for CLint are usually expressed as mL/min/mg microsomal protein, MPPGL = referred to as mg microsomal protein per gram liver.
Table S1. Summary of LC‐MS conditions
Table S2. Percentage of verapamil remaining at each incubation time […]

[6] = tested on: primary astrocytes; assay: Nitrite production (Griess) in LPS-treated primary astrocytes; settings: 1 μM 1 h, then LPS 10 μg/mL 24 h
[7] = tested on: mice; parameters: method as in ref 33 = [33]; PMID 32150414; doi:10.1021/acs.jmedchem.9b02080; 33. Abás S. Rodríguez-Arévalo S. Bagán A. Griñán-Ferré C. Vasilopoulou F. Brocos-Mosquera I. Muguruza C. Pérez B. Molins E. Luque F.J. Bicyclic α-Iminophosphonates as High Affinity Imidazoline I 2 Rec; settings: repeated administration of 20 mg/kg for 5 days; cited from earlier work
[8] = In vivo pharmacokinetics in brain; settings: male, CD1, mouse, ip, mice, 10 mg/kg intraperitoneal
Protocol: After treatment, mice were euthanized, and the plasma and brain were collected.
Male CD1 mice were supplied by the Laboratory Animal Service of the University of Granada (Granada, Spain) and housed in the Animal Facilities of the Center of Biomedical Investigation of the University of Granada. […] Calculations were performed using noncompartmental analysis of plasma data after intraperitoneal injection by means of PK Solver 2.0.
Basic PK parameters were calculated.

In the case of `CCOP(=O)(OCC)[C@]1(c2ccccc2)N=C[C@H]2C(=O)N(c3ccc(F)c(Cl)c3)C(=O)[C@H]21` (racemic) [B06, diethyl (1RS,3aSR,6aSR)-5-(3-chloro-4-fluorophenyl)-4,6-dioxo-1-phenyl-1,3a,4,5,6,6a-hexahydropyrrolo[3,4-c]pyrrole-1-phosphonate], the effect on cognition [1] is given as “improving cognition and ameliorating the neurodegenerative condition”, the “mice microsomal percentage remanent” value ([2]; 60 min) is given as 65.08% and the “t ½ in mice microsomes” value [2] is given as 91.72 min. The solubility [3] was 92 µM (≈ 44.1 µg/mL), the “Pe value in PAMPA (BBB permeation)” value [4] was “well above the threshold established for high BBB permeation” and the hepatic clearance category ([5]; classification bands low/medium/high) was “medium clearance”. For the same compound, the “% compound remaining” value ([5]; minus NADPH, 0 min) was 103.2 ± 13.82%, the “% compound remaining” value ([5]; minus NADPH, 60 min) was 75.30 ± 1.27% and the “% compound remaining” value ([5]; plus NADPH, 0 min) was 100.00 ± 14.46%. For the same compound, the “% compound remaining” value ([5]; plus NADPH, 5 min) was 98.60 ± 9.11%, the “% compound remaining” value ([5]; plus NADPH, 15 min) was 77.90 ± 13.20% and the “% compound remaining” value ([5]; plus NADPH, 30 min) was 54.10 ± 6.84%. The “% compound remaining” value ([5]; plus NADPH, 45 min) was 41.3 ± 5.83%, the “% compound remaining” value ([5]; plus NADPH, 60 min) was 29.40 ± 3.69% and the half-life at 1 μM ([5]; human, human liver microsomes, pH 7.4, 1 µM, 1 mg/mL protein) was 28.4 min. The “effect on nitrite production” value [6] was “significant decrease in nitrite production”, the “effect on body temperature” value [7] was “hypothermia” and the AUC(0-inf) ([8]; in vivo) was 3310 ng·h/mL. For the same compound, the Cmax ([8]; in vivo) was 128 ± 66 ng/mL, the Tmax ([8]; in vivo) was 15 min and the AUC(0-t) ([8]; in vivo, read-out: AUC0–480 (converted)) was 2320 ng·h/mL. For the same compound, the half-life [8] was 257 min.
